Patent US6753335B2, “Quinolinyl-piperidin-4-ylidene-methyl-benzamide derivatives for the treatment of pain” (AstraZeneca AB, priority 2000, dated 2004)

What was measured:
Format in all cases: biochemical
[1] = biological target: T1, delta receptors, mouse brain (Mus musculus, UniProt P32300); assay: GTP[γ]35S binding functional assay, homogenised mouse brain membranes
T1 construct: from tissue; host or cells: mouse brain homogenate
Method: (§1) B. Mouse and rat brains were weighed and rinsed in ice-cold PBS (containing 2.5 mM EDTA, pH 7.4). The brains were homogenized with a polytron for 15 sec (mouse) or 30 sec (rat) in ice-cold lysis buffer (50mM Tris, pH 7.0, 2.5mM EDTA, with phenylmethylsulfonyl fluoride added just prior use to […] from a 0.5 M stock in DMSO:ethanol).
(§2) The agonist activity of the compounds is measured by determining the degree to which the compounds receptor complex activates the binding of GTP to G-proteins to which the receptors are coupled. In the GTP binding assay, GTP[γ]^35S is combined with test compounds and membranes from HEK-293S cells expressing the cloned human opioid receptors or from homogenised rat and mouse brain. Agonists stimulate GTP[γ]^35S binding in these membranes. The EC50 and Emax values of compounds are determined from dose-response curves. Right shifts of the dose response curve by the delta antagonist naltindole are performed to verify that agonist activity is mediated through delta receptors.

[2] = biological target: T2, cloned human δ receptor (Homo sapiens, UniProt P41143); assay: GTP[γ]35S binding functional assay, membranes from HEK-293S cells expressing cloned human opioid receptors (HDELTA)
T2 construct: expressed in transfected cells; host or cells: human 293S (HEK-293S) cells, geneticin-selected
T2 sequence (P41143 whole entry): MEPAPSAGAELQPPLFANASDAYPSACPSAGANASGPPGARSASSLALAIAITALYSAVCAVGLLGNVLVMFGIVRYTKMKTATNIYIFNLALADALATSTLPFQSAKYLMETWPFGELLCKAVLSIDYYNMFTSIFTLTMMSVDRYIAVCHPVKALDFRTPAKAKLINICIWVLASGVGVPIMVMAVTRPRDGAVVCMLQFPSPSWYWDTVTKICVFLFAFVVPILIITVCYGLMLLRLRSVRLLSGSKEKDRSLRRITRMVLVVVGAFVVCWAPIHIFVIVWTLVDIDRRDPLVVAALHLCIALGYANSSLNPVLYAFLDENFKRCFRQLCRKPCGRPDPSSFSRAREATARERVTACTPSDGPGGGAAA
Method: A. Human 293S cells expressing cloned human μ, δ, and κ receptors and neomycin resistance were grown in suspension at 37° C. and 5% CO2 in shaker flasks containing calcium-free DMEM10% FBS, 5% BCS, 0.1% Pluronic F-68, and 600 μg/ml geneticin.
Cells were pelleted and resuspended in lysis buffer (50 mM Tris, pH 7.0, 2.5 mM EDTA, with PMSF added just prior to use to 0.1 mM from a 0.1 M stock in ethanol), incubated on ice for 15 min, then homogenized with a polytron for 30 sec. The suspension was spun at 1000 g (max) for 10 min at 4° C. The supernatant was saved on ice and the pellets resuspended and spun as before. The supernatants from both spins were combined and spun at 46,000 g (max) for 30 min. The pellets were resuspended in cold Tris buffer (50 mM Tris/Cl, pH 7.0) and spun again. The final pellets were resuspended in membrane buffer (50 mM Tris, […], pH 7.0). Aliquots (1 ml) in polypropylene tubes were frozen in dry ice/ethanol and stored at −70° C. until use. The protein concentrations were determined by a modified Lowry assay with sodium dodecyl sulfate.
as §2

[3] = biological target: T3, delta receptors, rat brain (Rattus norvegicus, UniProt P33533); assay: GTP[γ]35S binding functional assay, homogenised rat brain membranes
T3 construct: from tissue; host or cells: rat brain homogenate
T3 sequence (P33533 whole entry): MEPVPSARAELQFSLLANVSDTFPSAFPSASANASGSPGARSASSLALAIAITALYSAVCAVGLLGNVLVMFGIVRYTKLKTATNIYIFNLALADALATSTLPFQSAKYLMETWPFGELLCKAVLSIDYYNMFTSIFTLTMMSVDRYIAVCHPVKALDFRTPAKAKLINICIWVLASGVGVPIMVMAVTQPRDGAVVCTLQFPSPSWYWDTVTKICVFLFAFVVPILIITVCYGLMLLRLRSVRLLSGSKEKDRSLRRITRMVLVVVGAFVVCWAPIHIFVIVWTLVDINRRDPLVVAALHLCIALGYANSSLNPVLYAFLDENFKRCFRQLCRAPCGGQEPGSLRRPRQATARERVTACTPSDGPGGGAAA
Method: as §1, §2

T1 sequence (P32300 whole entry): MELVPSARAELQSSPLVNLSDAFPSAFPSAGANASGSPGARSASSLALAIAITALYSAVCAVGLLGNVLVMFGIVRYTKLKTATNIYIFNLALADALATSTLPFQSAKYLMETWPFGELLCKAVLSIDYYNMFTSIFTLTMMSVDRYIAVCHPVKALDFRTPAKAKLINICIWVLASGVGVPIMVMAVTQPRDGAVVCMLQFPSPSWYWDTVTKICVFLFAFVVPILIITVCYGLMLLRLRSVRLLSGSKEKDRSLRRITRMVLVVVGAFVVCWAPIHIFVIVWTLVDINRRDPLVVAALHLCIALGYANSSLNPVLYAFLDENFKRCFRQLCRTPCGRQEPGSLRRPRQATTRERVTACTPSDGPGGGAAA

| SMILES | Emax [1] | Emax [2] | Emax [3] |
| --- | --- | --- | --- |
| CCN(CC)C(=O)c1ccc(C(=C2CCN(Cc3ccccc3)CC2)c2cccc3cccnc23)cc1 [Example 2, N,N-diethyl-4-(8-quinolinyl-N-benzyl-piperidin-4-ylidene-methyl)-benzamide] | 112% | 90.5% | 104% |
| CCN(CC)C(=O)c1ccc(C(=C2CCN(Cc3ccccn3)CC2)c2cccc3cccnc23)cc1 [Example 7] | 124% | 97.6% | 126% |
| CCN(CC)C(=O)c1ccc(C(=C2CCN(Cc3ccncc3)CC2)c2cccc3cccnc23)cc1 [Example 10] | 110% | 118% | 109% |
| CCN(CC)C(=O)c1ccc(C(=C2CCN(Cc3ccsc3)CC2)c2cccc3cccnc23)cc1 [Example 6, N,N-diethyl-4-{8-quinolinyl[1-(3-thienylmethyl)-4-piperidinylidene]methyl}benzamide] | 140% | 123% | 135% |
| CCN(CC)C(=O)c1ccc(C(=C2CCN(Cc3c[nH]cn3)CC2)c2cccc3cccnc23)cc1 [Example 9] | 123% | 100% | 112% |
| CCN(CC)C(=O)c1ccc(C(=C2CCN(Cc3ccco3)CC2)c2cccc3cccnc23)cc1 [Example 3, N,N-diethyl-4-[[1-(2-furylmethyl)-4-piperidinylidene](8-quinoline)methyl]benzamide] | 146% | 103% | 130% |
| CCN(CC)C(=O)c1ccc(C(=C2CCN(Cc3cccs3)CC2)c2cccc3cccnc23)cc1 [Example 4, N,N-diethyl-4-{8-quinolinyl[1-(2-thienylmethyl)-4-piperidinylidene]methyl}benzamide] | 140% | 98.5% | 120% |
| CCN(CC)C(=O)c1ccc(C(=C2CCN(Cc3ncc[nH]3)CC2)c2cccc3cccnc23)cc1 [Example 8] | 138% | 111% | 148% |
| CCN(CC)C(=O)c1ccc(C(=C2CCN(Cc3ccoc3)CC2)c2cccc3cccnc23)cc1 [Example 5, N,N-diethyl-4-[[1-(3-furylmethyl)-4-piperidinylidene](8-quinolinyl)methyl]benzamide] | 147% | 99% | 135% |
